Measured values reported in ChEMBL document CHEMBL1201862, “PubChem BioAssay data set” (2004).
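A five-concentration, 48-hour dose response in 96-well plates underlies each endpoint, interpolated linearly between surrounding concentrations. GI50 marks 50% less growth.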 Calls of active or inactive are those of the source. Cut-off read from the data, not from the text of the source: active = GI50 up to about 1.1 µM and inactive = higher.

How the values were obtained:
Assay in all cases: DTP human tumour cell line panel, 48 h
[1] = test system: ACHN
[2] = test system: TK-10
[3] = test system: SK-MEL-28
[4] = test system: SN12C
[5] = test system: M14
[6] = test system: UACC-62
[7] = test system: OVCAR-8
[8] = test system: OVCAR-3
[9] = test system: UO-31
[10] = test system: SF-295
[11] = test system: UACC-257
[12] = test system: SK-MEL-5
[13] = test system: SNB-19
[14] = test system: SW-620
[15] = test system: NCI-H522

Measured: GI50

Oc1ncnc2c1nnn2CCCn1nnc2c(O)ncnc21
inactive: [1] > 100 µM | [2] > 100 µM | [3] > 100 µM | [4] > 100 µM | [5] > 100 µM | [6] > 100 µM | [7] > 100 µM | [8] > 100 µM | [9] > 100 µM | [10] > 100 µM | [11] > 100 µM | [12] > 100 µM | [13] > 100 µM | [14] > 100 µM | [15] > 100 µM

CCCCSC(=CC(=O)c1cccc(C(=O)C=C(SCCCC)SCCCC)n1)SCCCC
inactive: [1] > 100 µM | [2] > 100 µM | [3] > 100 µM | [4] > 100 µM | [5] > 100 µM | [6] > 100 µM | [7] > 100 µM | [8] > 100 µM | [9] > 100 µM | [10] > 100 µM | [11] > 100 µM | [12] > 100 µM | [13] > 100 µM | [14] > 100 µM | [15] > 100 µM

CN(/N=C\c1ccnc2ccccc12)c1ccc([N+](=O)[O-])cc1
inactive: [1] > 100 µM | [2] > 100 µM | [3] > 100 µM | [4] > 100 µM | [5] 97.1 µM | [6] 84.7 µM | [7] 95.7 µM | [8] > 100 µM | [10] 75.2 µM | [11] > 100 µM | [12] 53.8 µM | [13] > 100 µM | [14] 65 µM

O=C(CC1(O)C(=O)Nc2ccccc21)c1ccc(O)cc1 (configuration not stated)
inactive: [1] > 100 µM | [2] > 100 µM | [3] > 100 µM | [4] > 100 µM | [5] > 100 µM | [6] > 100 µM | [8] > 100 µM | [9] > 100 µM | [10] > 100 µM | [11] > 100 µM | [12] > 100 µM | [13] > 100 µM | [14] > 100 µM

O=C(CC(=O)N1N=C(c2ccccc2)C(/N=N/c2ccc(C(=O)O)cc2)C1=O)Nc1ccc(F)cc1 (configuration not stated)
inactive: [1] 23.6 µM | [2] 33.1 µM | [3] 38.3 µM | [4] 38.9 µM | [5] 38.8 µM | [6] 20.5 µM | [7] 40.8 µM | [8] 14.3 µM | [9] 29.6 µM | [10] 36.9 µM | [11] 58.9 µM | [12] 16.7 µM | [13] 36.4 µM | [14] 59.3 µM | [15] 10.4 µM

Cc1cc(-c2ccccc2)nc(Nc2cc3ccccc3[nH]2)n1
inactive: [1] > 100 µM | [2] > 100 µM | [3] > 100 µM | [4] > 100 µM | [5] > 100 µM | [6] > 100 µM | [7] > 100 µM | [8] > 100 µM | [9] > 100 µM | [10] > 100 µM | [11] > 100 µM | [12] > 100 µM | [13] > 100 µM | [14] > 100 µM | [15] > 100 µM

CN1c2ccccc2NC(CC(=O)O)C2CC=CN21 (configuration not stated)
inactive: [1] > 100 µM | [2] > 100 µM | [3] > 100 µM | [4] > 100 µM | [5] > 100 µM | [6] > 100 µM | [7] > 100 µM | [8] > 100 µM | [9] > 100 µM | [10] > 100 µM | [11] > 100 µM | [12] > 100 µM | [13] > 100 µM | [14] > 100 µM | [15] > 100 µM

Cc1cccc(/C=N/N=C(\N)NO)n1
inactive: [1] 27.3 µM | [2] > 100 µM | [3] > 100 µM | [4] > 100 µM | [5] 41.5 µM | [6] 2.12 µM | [7] 58.7 µM | [8] > 100 µM | [10] 22.8 µM | [11] > 100 µM | [12] 27.5 µM | [14] 74.5 µM | [15] 37.8 µM

COc1cccc(NC(=O)CC(=O)NNCC(=O)Nc2nnc(-c3ccc(N(CCC#N)S(=O)(=O)c4ccccc4)cc3)s2)c1
inactive: [1] 34.8 µM | [2] > 100 µM | [3] 55.7 µM | [4] 89.7 µM | [6] 30.7 µM | [7] > 100 µM | [8] 78.3 µM | [9] 47.4 µM | [10] 87.1 µM | [12] 37.6 µM | [13] > 100 µM | [14] > 100 µM | [15] 39 µM

O=C(O/N=C1/CCC/C1=C\c1ccccc1)c1ccc(Cl)cc1
inactive: [1] 60.5 µM | [2] 38.9 µM | [3] > 100 µM | [4] > 58.6 µM | [5] > 100 µM | [6] > 80.4 µM | [7] > 71.6 µM | [8] 36 µM | [9] 58.9 µM | [10] 42 µM | [11] > 100 µM | [12] > 100 µM | [13] > 100 µM | [14] > 100 µM | [15] > 58.2 µM

COc1cccc2c1C1(O)C2CCCC12OCCCO2 (configuration not stated)
inactive: [1] > 100 µM | [2] > 100 µM | [3] > 100 µM | [4] > 100 µM | [5] > 100 µM | [6] > 100 µM | [7] > 100 µM | [8] > 100 µM | [9] > 100 µM | [10] > 100 µM | [11] > 100 µM | [12] > 100 µM | [13] > 100 µM | [14] > 100 µM | [15] > 100 µM

COC(=O)c1c(C(=O)OC)c(-c2ccccc2)n(-c2ccccc2)c(=O)c1-c1ccccc1
inactive: [2] > 100 µM | [4] > 100 µM | [5] > 100 µM | [6] 61 µM | [7] 51.4 µM | [8] 51.8 µM | [9] 59.7 µM | [10] 36.9 µM | [11] 71.8 µM | [12] > 100 µM | [13] 67.9 µM | [14] > 100 µM | [15] 94.8 µM

O=[N+]([O-])C=C1c2ccccc2-c2ccccc21
inactive: [1] 16.9 µM | [2] 18.3 µM | [3] 17.2 µM | [4] 18.9 µM | [5] 12.7 µM | [7] 16.4 µM | [8] 15.1 µM | [9] 15.2 µM | [10] 19 µM | [11] 19.1 µM | [13] 23 µM | [14] 16.4 µM | [15] 3.76 µM

COc1ccc(C(O)C(c2ccc(OCc3ccccc3)cc2)c2ccc(OCc3ccccc3)cc2)cc1 (configuration not stated)
inactive: [1] > 100 µM | [2] > 100 µM | [3] > 100 µM | [4] > 100 µM | [5] > 100 µM | [6] > 100 µM | [7] > 100 µM | [8] > 100 µM | [9] > 100 µM | [10] > 100 µM | [12] > 100 µM | [13] > 100 µM | [14] > 100 µM | [15] > 100 µM

O=c1nc(-c2ccccc2)c2c3c(cccn13)CCC2
inactive: [1] > 100 µM | [2] > 100 µM | [3] > 100 µM | [4] > 100 µM | [5] > 100 µM | [6] > 100 µM | [7] > 100 µM | [8] > 100 µM | [9] 73.6 µM | [10] > 100 µM | [11] > 100 µM | [12] > 100 µM | [13] > 100 µM | [14] > 100 µM | [15] > 100 µM

CCNc1nnc(-c2nsc3ccccc23)s1
inactive: [1] 62.4 µM | [2] > 100 µM | [3] 88.3 µM | [4] > 100 µM | [5] > 100 µM | [6] > 100 µM | [7] 57.8 µM | [8] 17.8 µM | [9] 24.8 µM | [11] > 100 µM | [12] > 100 µM | [13] 16.3 µM | [14] > 100 µM

Nc1ccccc1/C(O)=C1/CCOC1=O
inactive: [1] > 100 µM | [2] > 100 µM | [3] > 100 µM | [4] > 100 µM | [5] > 100 µM | [6] > 100 µM | [7] > 100 µM | [8] > 100 µM | [9] > 100 µM | [10] > 100 µM | [11] > 100 µM | [13] > 100 µM | [14] > 100 µM | [15] > 100 µM

CN1CC2(CCCCC2)C(O)C12C=CCCC2 (configuration not stated)
inactive: [2] > 100 µM | [3] > 100 µM | [4] > 100 µM | [5] > 100 µM | [6] > 100 µM | [7] > 100 µM | [8] > 100 µM | [9] > 100 µM | [10] > 100 µM | [11] > 100 µM | [12] > 100 µM | [13] > 100 µM | [14] > 100 µM | [15] > 100 µM

Cc1nc(-n2nc(-c3ccccc3)cc2-c2ccccc2)sc1C(/C=C/c1ccc([N+](=O)[O-])cc1)=N/NC(N)=S
inactive: [1] 46.1 µM | [2] > 100 µM | [3] 91.8 µM | [4] > 100 µM | [5] 43 µM | [6] 54.8 µM | [7] 39.8 µM | [8] 38.2 µM | [9] 7.41 µM | [10] 45.8 µM | [11] 78.3 µM | [12] 28.8 µM | [13] > 100 µM | [14] > 10 µM
